Like-named read-outs stand apart in the source and are kept apart here.
Legend:
Type in all cases: cell-based
[1] = target: T1, wild type AXL (wtAXL) receptor tyrosine kinase (Homo sapiens, UniProt P30530); experiment: NIH-3T3-AXL cellular kinase assay (pY-AXL-ELISA); details: NIH-3T3-AXL (clone 22) cells, serum depleted, compounds 1 h; Table Ia
T1 construct: WtAXL cDNA was cloned into vector pLXSN(ESK) and transfected into Phoenix E packaging cells; expressed in transfected cells; host or cells: NIH3T3 N7 (mouse fibroblasts), retrovirally infected, clone 22
T1 sequence (P30530 26-894): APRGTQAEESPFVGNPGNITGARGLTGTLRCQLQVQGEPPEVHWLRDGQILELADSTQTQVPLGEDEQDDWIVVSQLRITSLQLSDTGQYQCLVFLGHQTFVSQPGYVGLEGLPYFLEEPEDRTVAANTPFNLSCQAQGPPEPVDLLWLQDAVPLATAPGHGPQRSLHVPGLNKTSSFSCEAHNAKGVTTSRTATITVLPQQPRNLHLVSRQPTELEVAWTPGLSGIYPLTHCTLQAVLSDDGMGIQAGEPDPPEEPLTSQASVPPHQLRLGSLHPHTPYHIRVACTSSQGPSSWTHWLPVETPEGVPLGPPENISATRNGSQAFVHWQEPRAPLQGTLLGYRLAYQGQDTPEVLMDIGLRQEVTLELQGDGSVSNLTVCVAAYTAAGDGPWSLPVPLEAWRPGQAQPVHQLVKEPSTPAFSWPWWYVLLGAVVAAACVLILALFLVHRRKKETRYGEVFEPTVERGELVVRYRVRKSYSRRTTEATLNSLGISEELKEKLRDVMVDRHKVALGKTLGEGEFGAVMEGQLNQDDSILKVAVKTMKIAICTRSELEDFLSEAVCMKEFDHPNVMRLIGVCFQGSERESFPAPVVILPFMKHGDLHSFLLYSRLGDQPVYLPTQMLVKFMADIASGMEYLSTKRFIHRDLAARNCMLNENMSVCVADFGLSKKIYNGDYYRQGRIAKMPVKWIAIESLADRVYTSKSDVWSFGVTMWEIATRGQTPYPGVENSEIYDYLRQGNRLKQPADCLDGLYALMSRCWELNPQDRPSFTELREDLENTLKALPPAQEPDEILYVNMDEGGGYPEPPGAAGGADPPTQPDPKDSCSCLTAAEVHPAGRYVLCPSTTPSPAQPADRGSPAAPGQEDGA
Summary of the method: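 Phospho-AXL was quantified by ELISA in lysates (4G10-biotin, streptavidin-AP, AttoPhos, 430/560 nm read at 90 min). The cells were monoclonal NIH3T3 lines stably transduced with human wtAXL, exposed to serial compound dilutions for 1 h before lysis.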

Hs578T = experiment: Wound healing migration assay; details: Homo sapiens, Hs-578T; HS578T cell line; Table Ib
Summary of the method: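 Compound exposure at 12.5, 6.25 and 3.125 μM, with DMSO control, on scratch-wounded monolayers (150000 cells/24 well, overnight). Wound closure imaged by microscopy, fixed with crystal violet after 48 h or 72 h depending on cell line; IC50 is the concentration giving 50% wound size between t0 and t48/t72.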

tumor cell = experiment: Matrigel outgrowth assay/branching assay (Table Va)
Summary of the method: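 Invasive outgrowth into a 3 mg/ml Matrigel gel is judged from images taken after 48, 72 and 96 h of exposure to 3.125, 1.56 or 0.78 μM compound, with DMSO as control. Positive means total inhibition of branching.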

[2] = Homo sapiens, C8161 cells, read-out: Total branching inhibition in Matrigel C8161
[3] = Homo sapiens, Hs-578T, Hs578T cells, read-out: Total branching inhibition in Matrigel Hs578T
[4] = U118 cells, read-out: Total branching inhibition in Matrigel U118
[5] = U138 cells, read-out: Total branching inhibition in Matrigel U138

Row | IC50 [1] [µM] | IC50 (Hs578T) [µM] | IC50 (tumor cell; [2]) [µM] | IC50 (tumor cell; [3]) [µM] | IC50 (tumor cell; [4]) [µM] | IC50 (tumor cell; [5]) [µM] | SMILES
1 | < 0.5 | ≤ 12.5 | ≤ 5 | ≤ 5 | ≤ 5 | 5 to 50 | COC(=O)c1sccc1S(=O)(=O)Nc1ccc(Oc2ccnc3cc(OCCCN4CCCC(C)C4)c(OC)cc23)c(F)c1 (stereo not shown) [Example 66, 3-(3-Fluoro-4-{6-methoxy-7-[3-(3-methyl-piperidin-1-yl)-propoxy]-quinolin-4-yloxy}-phenylsulfamoyl)-thiophene-2-carboxylic acid methyl ester]
2 | < 0.5 | ≤ 12.5 | ≤ 5 | ≤ 5 | ≤ 5 | 5 to 50 | COc1cc2c(Oc3ccc(NS(=O)(=O)c4cccc(Oc5ccccc5)c4)cc3F)ccnc2cc1OCCCN1CCCCC1 [Example 10, N-{3-Fluoro-4-[6-methoxy-7-(3-piperidin-1-yl-propoxy)-quinolin-4-yloxy]-phenyl}-3-phenoxy-benzenesulfonamide]
3 | < 0.5 | ≤ 12.5 | ≤ 5 | ≤ 5 | ≤ 5 | 5 to 50 | COc1cc2c(Oc3ccc(NS(=O)(=O)c4ccccc4C(F)(F)F)cc3Cl)ccnc2cc1OCCCN1CCN(C)CC1 [Example 87, N-(3-Chloro-4-{6-methoxy-7-[3-(4-methyl-piperazin-1-yl)-propoxy]-quinolin-4-yloxy}-phenyl)-2-trifluoromethyl-benzenesulfonamide]
4 | < 0.5 | ≤ 12.5 | 5 to 50 | ≤ 5 | ≤ 5 | ≤ 5 | COc1cc2c(Oc3ccc(NS(=O)(=O)c4ccc(F)c(Cl)c4)cc3F)ccnc2cc1OCCCN1CCCC(C)C1 (stereo not shown) [Example 57, 3-Chloro-4-fluoro-N-(3-fluoro-4-{6-methoxy-7-[3-(3-methyl-piperidin-1-yl)-propoxy]-quinolin-4-yloxy}-phenyl)-benzenesulfonamide]
5 | < 0.5 | 12.5 to 50 | 5 to 50 | ≤ 5 | ≤ 5 | 5 to 50 | COc1cc2c(Oc3ccc(NS(=O)(=O)c4c(F)cccc4F)cc3F)ccnc2cc1OCCN1CCOCC1 [Example 82, 2,6-Difluoro-N-{3-fluoro-4-[6-methoxy-7-(2-morpholin-4-yl-ethoxy)-quinolin-4-yloxy]-phenyl}-benzenesulfonamide]
6 | < 0.5 | ≤ 12.5 | ≤ 5 | ≤ 5 | ≤ 5 | 5 to 50 | COc1cc2c(Oc3ccc(NS(=O)(=O)c4ccc(F)cc4F)cc3F)ccnc2cc1OCCCN1CCCC(C)C1 (stereo not shown) [Example 47, 2,4-Difluoro-N-(3-fluoro-4-{6-methoxy-7-[3-(3-methyl-piperidin-1-yl)-propoxy]-quinolin-4-yloxy}-phenyl)-benzenesulfonamide]
7 | < 0.5 | 12.5 to 50 | ≤ 5 | ≤ 5 | 5 to 50 | 5 to 50 | COc1cc2c(Oc3ccc(NS(=O)(=O)c4ccccc4F)cc3F)ccnc2cc1OCCN1CCOCC1 [Example 81, 2-Fluoro-N-{3-fluoro-4-[6-methoxy-7-(2-morpholin-4-yl-ethoxy)-quinolin-4-yloxy]-phenyl}-benzenesulfonamide]
8 | < 0.5 | ≤ 12.5 | ≤ 5 | 5 to 50 | ≤ 5 | 5 to 50 | COc1cc2c(Oc3ccc(NS(=O)(=O)c4ccc(C)c(F)c4)cc3F)ccnc2cc1OCCCN1CCCC(C)C1 (stereo not shown) [Example 56, 3-Fluoro-N-(3-fluoro-4-{6-methoxy-7-[3-(3-methyl-piperidin-1-yl)-propoxy]-quinolin-4-yloxy}-phenyl)-4-methyl-benzenesulfonamide]
9 | < 0.5 | ≤ 12.5 | ≤ 5 | ≤ 5 | 5 to 50 | ≤ 5 | COc1cc2c(Oc3ccc(NS(=O)(=O)c4cccc(Oc5ccccc5)c4)cc3F)ccnc2cc1OCCCN1CCCC(C)C1 (stereo not shown) [Example 59, N-(3-Fluoro-4-{6-methoxy-7-[3-(3-methyl-piperidin-1-yl)-propoxy]-quinolin-4-yloxy}-phenyl)-3-phenoxy-benzenesulfonamide]
10 | < 0.5 | ≤ 12.5 | ≤ 5 | ≤ 5 | ≤ 5 | 5 to 50 | COc1cc2c(Oc3ccc(NS(=O)(=O)c4cc(Cl)cc(Cl)c4OC)cc3F)ccnc2cc1OCCCN1CCCCC1 [Example 34, 3,5-Dichloro-N-{3-fluoro-4-[6-methoxy-7-(3-piperidin-1-yl-propoxy)-quinolin-4-yloxy]-phenyl}-2-methoxy-benzenesulfonamide]
11 | < 0.5 | ≤ 12.5 | 5 to 50 | ≤ 5 | ≤ 5 | ≤ 5 | COc1cc2c(Oc3ccc(NS(=O)(=O)c4ccc(Cl)s4)cc3F)ccnc2cc1OCCCN1CCCC(C)C1 (stereo not shown) [Example 63, 5-Chloro-thiophene-2-sulfonic acid (3-fluoro-4-{6-methoxy-7-[3-(3-methyl-piperidin-1-yl)-propoxy]-quinolin-4-yloxy}-phenyl)-amide]
12 | < 0.5 | ≤ 12.5 | ≤ 5 | 5 to 50 | ≤ 5 | 5 to 50 | COc1cc2c(Oc3ccc(NS(=O)(=O)c4ccccc4[N+](=O)[O-])cc3F)ccnc2cc1OCCCN1CCCCC1 [Example 7, N-{3-Fluoro-4-[6-methoxy-7-(3-piperidin-1-yl-propoxy)-quinolin-4-yloxy]-phenyl}-2-nitro-benzenesulfonamide]
13 | < 0.5 | ≤ 12.5 | ≤ 5 | ≤ 5 | ≤ 5 | 5 to 50 | COc1cc2c(Oc3ccc(NS(=O)(=O)c4ccccc4Cl)cc3F)ccnc2cc1OCCCN1CCCC(C)C1 (stereo not shown) [Example 38, 2-Chloro-N-(3-fluoro-4-{6-methoxy-7-[3-(3-methyl-piperidin-1-yl)-propoxy]-quinolin-4-yloxy}-phenyl)-benzenesulfonamide]
14 | < 0.5 | ≤ 12.5 | ≤ 5 | ≤ 5 | ≤ 5 | 5 to 50 | COc1cc2c(Oc3ccc(NS(=O)(=O)c4cccc5ccccc45)cc3F)ccnc2cc1OCCCN1CCCC(C)C1 (stereo not shown) [Example 58, Naphthalene-1-sulfonic acid (3-fluoro-4-{6-methoxy-7-[3-(3-methyl-piperidin-1-yl)-propoxy]-quinolin-4-yloxy}-phenyl)-amide]
15 | < 0.5 | ≤ 12.5 |  |  |  |  | COc1cc2c(Oc3ccc(NS(=O)(=O)c4cc(F)ccc4F)cc3Cl)ccnc2cc1OCCCN1CCN(C)CC1 [Example 112, N-(3-Chloro-4-{6-methoxy-7-[3-(4-methyl-piperazin-1-yl)-propoxy]-quinolin-4-yloxy}-phenyl)-2,5-difluoro-benzenesulfonamide]
16 | < 0.5 | ≤ 12.5 |  |  |  |  | COc1cc2c(Oc3ccc(NS(=O)(=O)c4c(Cl)cccc4Cl)cc3F)ccnc2cc1OCCCN(C)C [Example 181, 2,6-Dichloro-N-{4-[7-(3-dimethylamino-propoxy)-6-methoxy-quinolin-4-yloxy]-3-fluoro-phenyl}-benzenesulfonamide]

From patent publication US9169241B2, “Quinolinyloxyphenylsulfonamides” (Max-Planck-Gesellschaft Zur Forderung der Wissenschaften …, priority 2009, dated 2015)
